Experimental data: US9120849B2 (priority 2000, dated 2015)
Where two headings read alike, the source gives them in different places.

Key:
[1] = system: HIV; details: for HIV p24 protein in culture supernatants: CEM cells
Description: This example describes one method of inactivation of the purified virus according to the invention by crosslinking of surface proteins. […] Titrations of the fixative were preformed above and below the concentration recommended by the CDC for inactivation of virus in biological fluids (May 8, 1992/41 (RR-8); 001 CDC Guidelines for the Performance of CD4+ T-Cell Determinations in Persons with Human Immunodeficiency Virus Infection). Initially, purified virus was slowly thawed at 2-8° C. for 6-8 hours to minimize lysis of the virus. Next, while on ice, virus was diluted with cold PBS to a final concentration of approximately 1×10^10 copies/mL (cp/mL). […] The reaction mixtures were then incubated at 2-8° C. for 60 minutes while gently rocking. […] After the addition of glycine the reactions were gently rocked for 2 hr. at 2-8° C. To remove glycine and any excess unquenched fixative each reaction mixture was then dialyzed (10-14K m.w. cutoff) against 1 L PBS (pH 7.4, 2-8° C.) for 4 changes. Dialyzed virus was then transferred into a 15 mL tube and centrifuged for 10 min. at 3,000×g to pellet any precipitated virus. A sample of each supernatant was then tested in cell culture for the presence of infectious virus.
The modified virus produced as described in Example 2 was tested to ensure the process inactivated the virus. As an illustration, the CEM cell line, obtained from the American Type Culture Collection was used as a host cell for viral infectivity studies. Advantages of using this line are that establishment of in vitro HIV infection requires relatively few virions and that the infection is chronic rather than lytic, facilitating analysis. For these studies, infection is detected and followed using the ZeptoMetrix HIV p24 Antigen EIA (ZeptoMetrix, Buffalo N.Y.).
CEM cells are cultured in RPMI-1640 containing 10% FBS in 24 well plates Cells are plated at 10^5 cells per well in a 1 ml volume and 100 ul of various dilutions of virus, either treated or untreated, are added to individual wells. Cultures are fed twice weekly by 50% media replacement and culture supernatants are assayed for HIV p24. All cultures initially contain HIV p24. However, in cultures where virus is noninfectious HIV p24 levels decrease over time eventually reaching background levels.
Different dilutions (1:8,000, 1:80,000, and 1:800,000) of treated virus were then placed into cultures of CEM cells and p24 assays were performed on culture supernatants on days 3, 7, 10, and 14 post-inoculation. Data are expressed as pg/ml of HIV p24 protein in the culture supernatants. The standard curve for the p24 assay is linear from 7.8 pg/ml to 125 pg/ml. HIV p24 concentrations below 7.8 pg/ml are expressed as “<7.8 pg/ml” to indicate sensitivity of the assay, and values above 125 pg/ml are expressed as “>125 pg/ml” since the assay is nonlinear above 125 pg/ml.

[2] = system: duck hepatitis B virus (DHBV); details: 60 minutes, 20° C., Reed and Muench
Description: This model uses primary duck hepatocytes (PDHs) as host (Pugh et al., 1999). We isolated and maintained PDHs from less than one week-old seronegative White Pekin ducklings (Anas dornesticus) with modifications from previous procedures (Berry and Friend, 1969, Seglen. 1976, Pugh and Summers, 1989, Pugh et al., 2000, Tuttleman et al., 1986). Briefly, ducks were euthanized by exposing them to C02 and livers were perfused twice via the atrium of the heart with approximately 200 mL each of two solutions. The first solution consisted of SWIM's S-77 medium (Sigma) supplemented with 0.5 mmol/L EGTA, 2 mmol/L Hepes (pH 7.45) and 50 ug/mL penicillin and streptomycin (Biofluids, Rockville, Md.). The second solution contained SWIM's S-77 medium supplemented with 2.5 mmol/L CaCl2, 0.5 mg of collagenase/mL (type I, Sigma, St. Louis) and 50 ug/mL penicillin and streptomycin. These perfusates were administered at approximately 15 mL/minute using a peristaltic pump and the temperature of the perftisate was adjusted to maintain the liver at 37° C. The liver was removed, minced with scissors and repeatedly mixed with a 25 mL pipette for hepatocyte dispersion into complete L-15 medium (Biofluids, Rockville, Md.) supplemented with 0.05-percent (w/v) sodium bicarbonate (Biofluids), 1 mmol/L glutamine (Biofluids), 20 mmol/L HEPES (Biofluids), 50 ug/mL penicillin and streptomycin (Biofluids), I (g/mL insulin (Sigma, St. Louis), and 10 (moi/L hydrocortisone-hemisuccinate (Sigma). Cells were filtered through sterile gauze, centrifuged at 50×g for 4 minutes, and the resulting cell pellet was washed three times with L-15 medium and resuspended in L-15 medium. 12-well plates were seeded with approximately two-mL of the cell suspension (ca. 10^5 cells). Media on the plated cells were aspirated every two days and replaced with fresh L-15 media.
Serum of four week-old congenitally infected duckling served as the source of virus used in these experiments. Treated and control DHBV spiked red cell samples were serially diluted 10-fold in L-15 medium and one-mL volumes were subsequently inoculated into PDH monolayers in quadruplicate. The infected cultures were incubated at 37° C.+20° C. with 5+1% C02 overnight for virus attachment and entry. The inoculum was then removed, cell monolayers washed once with complete L-15 medium to remove excess red blood cells, and then each well was overlaid with approximately 2-mL of fresh L-15 medium. Infected monolayers were incubated an additional 10-14 days at 37(+20° C. with 5+1% C02, with media changes every 2 days.
We detected the presence of DHB V-infected duck hepatocytes by an IFA. Briefly, the medium from the PDH monolayer was removed by aspiration, and the monolayers washed with agitation for 5-10 minutes with 1-2 mL of phosphate buffered saline (PBS). […]

With paraformaldehyde the “HIV p24 protein in culture supernatants” value ([1]; exposure time 15 minutes, treated HIV diluted 1:8,000, 10 days post-inoculation) was 43.9 pg/mL, the “HIV p24 protein in culture supernatants” value ([1]; exposure time 15 minutes, treated HIV diluted 1:8,000, 14 days post-inoculation) was <7.8 pg/mL and the “HIV p24 protein in culture supernatants” value ([1]; exposure time 15 minutes, treated HIV diluted 1:80,000, 3 days post-inoculation) was 27.9 pg/mL. For the same substance, the “HIV p24 protein in culture supernatants” value ([1]; exposure time 15 minutes, treated HIV diluted 1:80,000, 7 days post-inoculation) was 18.0 pg/mL, the “HIV p24 protein in culture supernatants” value ([1]; exposure time 15 minutes, treated HIV diluted 1:80,000, 10 days post-inoculation) was <7.8 pg/mL and the “HIV p24 protein in culture supernatants” value ([1]; exposure time 15 minutes, treated HIV diluted 1:80,000, 14 days post-inoculation) was <7.8 pg/mL. For the same substance, the “HIV p24 protein in culture supernatants” value ([1]; exposure time 15 minutes, treated HIV diluted 1:800,000, 3 days post-inoculation) was <7.8 pg/mL, the “HIV p24 protein in culture supernatants” value ([1]; exposure time 15 minutes, treated HIV diluted 1:800,000, 7 days post-inoculation) was <7.8 pg/mL and the “HIV p24 protein in culture supernatants” value ([1]; exposure time 15 minutes, treated HIV diluted 1:800,000, 10 days post-inoculation) was <7.8 pg/mL. The “HIV p24 protein in culture supernatants” value ([1]; exposure time 15 minutes, treated HIV diluted 1:800,000, 14 days post-inoculation) was <7.8 pg/mL, the “HIV p24 protein in culture supernatants” value ([1]; exposure time 30 minutes, treated HIV diluted 1:8,000, 3 days post-inoculation) was >125 pg/mL and the “HIV p24 protein in culture supernatants” value ([1]; exposure time 30 minutes, treated HIV diluted 1:8,000, 7 days post-inoculation) was >125 pg/mL. The “HIV p24 protein in culture supernatants” value ([1]; exposure time 30 minutes, treated HIV diluted 1:8,000, 10 days post-inoculation) was 46.2 pg/mL, the “HIV p24 protein in culture supernatants” value ([1]; exposure time 30 minutes, treated HIV diluted 1:8,000, 14 days post-inoculation) was <7.8 pg/mL and the “HIV p24 protein in culture supernatants” value ([1]; exposure time 30 minutes, treated HIV diluted 1:80,000, 3 days post-inoculation) was 22.6 pg/mL. The “HIV p24 protein in culture supernatants” value ([1]; exposure time 30 minutes, treated HIV diluted 1:80,000, 7 days post-inoculation) was 10.3 pg/mL, the “HIV p24 protein in culture supernatants” value ([1]; exposure time 30 minutes, treated HIV diluted 1:80,000, 10 days post-inoculation) was <7.8 pg/mL and the “HIV p24 protein in culture supernatants” value ([1]; exposure time 30 minutes, treated HIV diluted 1:80,000, 14 days post-inoculation) was <7.8 pg/mL. For the same substance, the “HIV p24 protein in culture supernatants” value ([1]; exposure time 30 minutes, treated HIV diluted 1:800,000, 3 days post-inoculation) was <7.8 pg/mL, the “HIV p24 protein in culture supernatants” value ([1]; exposure time 30 minutes, treated HIV diluted 1:800,000, 7 days post-inoculation) was <7.8 pg/mL and the “HIV p24 protein in culture supernatants” value ([1]; exposure time 30 minutes, treated HIV diluted 1:800,000, 10 days post-inoculation) was <7.8 pg/mL. For the same substance, the “HIV p24 protein in culture supernatants” value ([1]; exposure time 30 minutes, treated HIV diluted 1:800,000, 14 days post-inoculation) was <7.8 pg/mL, the “HIV p24 protein in culture supernatants” value ([1]; exposure time 60 minutes, treated HIV diluted 1:8,000, 3 days post-inoculation) was >125 pg/mL and the “HIV p24 protein in culture supernatants” value ([1]; exposure time 60 minutes, treated HIV diluted 1:8,000, 7 days post-inoculation) was >125 pg/mL. For the same substance, the “HIV p24 protein in culture supernatants” value ([1]; exposure time 60 minutes, treated HIV diluted 1:8,000, 10 days post-inoculation) was 87.4 pg/mL, the “HIV p24 protein in culture supernatants” value ([1]; exposure time 60 minutes, treated HIV diluted 1:8,000, 14 days post-inoculation) was <7.8 pg/mL and the “HIV p24 protein in culture supernatants” value ([1]; exposure time 60 minutes, treated HIV diluted 1:80,000, 3 days post-inoculation) was 59.8 pg/mL. For the same substance, the “HIV p24 protein in culture supernatants” value ([1]; exposure time 60 minutes, treated HIV diluted 1:80,000, 7 days post-inoculation) was 36.0 pg/mL, the “HIV p24 protein in culture supernatants” value ([1]; exposure time 60 minutes, treated HIV diluted 1:80,000, 10 days post-inoculation) was <7.8 pg/mL and the “HIV p24 protein in culture supernatants” value ([1]; exposure time 60 minutes, treated HIV diluted 1:80,000, 14 days post-inoculation) was <7.8 pg/mL. The “HIV p24 protein in culture supernatants” value ([1]; exposure time 60 minutes, treated HIV diluted 1:800,000, 3 days post-inoculation) was <7.8 pg/mL, the “HIV p24 protein in culture supernatants” value ([1]; exposure time 60 minutes, treated HIV diluted 1:800,000, 7 days post-inoculation) was <7.8 pg/mL and the “HIV p24 protein in culture supernatants” value ([1]; exposure time 60 minutes, treated HIV diluted 1:800,000, 10 days post-inoculation) was <7.8 pg/mL. The “HIV p24 protein in culture supernatants” value ([1]; exposure time 60 minutes, treated HIV diluted 1:800,000, 14 days post-inoculation) was <7.8 pg/mL, the “HIV p24 protein in culture supernatants” value ([1]; exposure time Overnight, treated HIV diluted 1:8,000, 3 days post-inoculation) was >125 pg/mL and the “HIV p24 protein in culture supernatants” value ([1]; exposure time Overnight, treated HIV diluted 1:8,000, 7 days post-inoculation) was >125 pg/mL. The “HIV p24 protein in culture supernatants” value ([1]; exposure time Overnight, treated HIV diluted 1:8,000, 10 days post-inoculation) was 27.6 pg/mL, the “HIV p24 protein in culture supernatants” value ([1]; exposure time Overnight, treated HIV diluted 1:8,000, 14 days post-inoculation) was <7.8 pg/mL and the “HIV p24 protein in culture supernatants” value ([1]; exposure time Overnight, treated HIV diluted 1:80,000, 3 days post-inoculation) was 16.3 pg/mL. The “HIV p24 protein in culture supernatants” value ([1]; exposure time Overnight, treated HIV diluted 1:80,000, 7 days post-inoculation) was 17.5 pg/mL, the “HIV p24 protein in culture supernatants” value ([1]; exposure time Overnight, treated HIV diluted 1:80,000, 10 days post-inoculation) was <7.8 pg/mL and the “HIV p24 protein in culture supernatants” value ([1]; exposure time Overnight, treated HIV diluted 1:80,000, 14 days post-inoculation) was <7.8 pg/mL. For the same substance, the “HIV p24 protein in culture supernatants” value ([1]; exposure time Overnight, treated HIV diluted 1:800,000, 3 days post-inoculation) was <7.8 pg/mL, the “HIV p24 protein in culture supernatants” value ([1]; exposure time Overnight, treated HIV diluted 1:800,000, 7 days post-inoculation) was <7.8 pg/mL and the “HIV p24 protein in culture supernatants” value ([1]; exposure time Overnight, treated HIV diluted 1:800,000, 10 days post-inoculation) was <7.8 pg/mL. The “HIV p24 protein in culture supernatants” value ([1]; exposure time Overnight, treated HIV diluted 1:800,000, 14 days post-inoculation) was <7.8 pg/mL, the “amounts of p24 in the culture supernatants” value ([1]; treatment of virus with paraformaldehyde, by day 14) was “non-detectable” and the “FFFUD50/mL (log10)” value ([2]; paraformaldehyde column 1) was 0 FFFUD50/mL (log10). The “FFFUD50/mL (log10)” value ([2]; paraformaldehyde column 2) was 0 FFFUD50/mL (log10), the “FFFUD50/mL (log10)” value ([2]; paraformaldehyde column 3) was 0 FFFUD50/mL (log10) and the “FFFUD50/mL (log10)” value ([2]; paraformaldehyde column 4) was 0 FFFUD50/mL (log10).
